Data: ChEMBL document CHEMBL1765086, “Structural modifications of UMP, UDP, and UTP leading to subtype-selective agonists for P2Y2, P2Y4, and P2Y6 receptors” (J Med Chem, 2011)

Experiments:
P2Y purinoceptor 4 [1] = target: T1, P2Y purinoceptor 4 (Homo sapiens, UniProt P51582); test: Agonist activity at P2Y4 receptor; type: functional
P2Y purinoceptor 4 [2] = target: T1, P2Y purinoceptor 4; test: Agonist activity at human recombinant P2Y4 receptor expressed in human 1321N1 cells assessed as [3H]inositol phosphate intracellular accumulation by scintillation proximity assay; type: functional, cell-based
P2Y purinoceptor 2 [3] = target: T2, P2Y purinoceptor 2 (Homo sapiens, UniProt P41231); test: Agonist activity at human recombinant P2Y2 receptor expressed in human 1321N1 cells assessed as [3H]inositol phosphate intracellular accumulation by scintillation proximity assay; type: functional, cell-based
P2Y purinoceptor 6 [4] = target: T3, P2Y purinoceptor 6 (Homo sapiens, UniProt Q15077); test: Agonist activity at human recombinant P2Y6 receptor expressed in human 1321N1 cells assessed as [3H]inositol phosphate intracellular accumulation by scintillation proximity assay; type: functional, cell-based
Homo sapiens [5] = organism: Homo sapiens; test: Selectivity ratio of EC50 for human P2Y4 receptor to EC50 for human P2Y2 receptor
Homo sapiens [6] = organism: Homo sapiens; test: Selectivity ratio of EC50 for human P2Y6 receptor to EC50 for human P2Y2 receptor
P2Y purinoceptor 2 [7] = target: T2, P2Y purinoceptor 2; test: Ratio of compound EC50 to UDP EC50 for human recombinant P2Y2 receptor
Homo sapiens [8] = organism: Homo sapiens; test: Selectivity ratio of EC50 for human P2Y2 receptor to EC50 for human P2Y4 receptor
Homo sapiens [9] = organism: Homo sapiens; test: Selectivity ratio of EC50 for human P2Y6 receptor to EC50 for human P2Y4 receptor
Homo sapiens [10] = organism: Homo sapiens; test: Selectivity ratio of EC50 for human P2Y4 receptor to EC50 for human P2Y6 receptor
Homo sapiens [11] = organism: Homo sapiens; test: Selectivity ratio of EC50 for human P2Y2 receptor to EC50 for human P2Y6 receptor
P2Y purinoceptor 6 [12] = target: T3, P2Y purinoceptor 6; test: Agonist activity at P2Y6 receptor; type: functional
P2Y purinoceptor 2 [13] = target: T2, P2Y purinoceptor 2; test: Agonist activity at P2Y2 receptor; type: functional

T2 sequence (P41231 whole entry): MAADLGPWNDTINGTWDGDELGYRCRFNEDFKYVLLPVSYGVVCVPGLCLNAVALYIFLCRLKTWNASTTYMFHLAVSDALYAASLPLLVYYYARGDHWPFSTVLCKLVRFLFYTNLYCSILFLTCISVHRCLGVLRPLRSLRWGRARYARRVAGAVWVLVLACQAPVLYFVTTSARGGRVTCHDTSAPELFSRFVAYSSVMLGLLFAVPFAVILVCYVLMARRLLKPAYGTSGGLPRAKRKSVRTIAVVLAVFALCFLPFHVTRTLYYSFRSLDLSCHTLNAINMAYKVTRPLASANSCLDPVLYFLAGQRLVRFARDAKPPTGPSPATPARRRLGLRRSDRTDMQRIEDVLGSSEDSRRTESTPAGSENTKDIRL
T1 sequence (P51582 whole entry): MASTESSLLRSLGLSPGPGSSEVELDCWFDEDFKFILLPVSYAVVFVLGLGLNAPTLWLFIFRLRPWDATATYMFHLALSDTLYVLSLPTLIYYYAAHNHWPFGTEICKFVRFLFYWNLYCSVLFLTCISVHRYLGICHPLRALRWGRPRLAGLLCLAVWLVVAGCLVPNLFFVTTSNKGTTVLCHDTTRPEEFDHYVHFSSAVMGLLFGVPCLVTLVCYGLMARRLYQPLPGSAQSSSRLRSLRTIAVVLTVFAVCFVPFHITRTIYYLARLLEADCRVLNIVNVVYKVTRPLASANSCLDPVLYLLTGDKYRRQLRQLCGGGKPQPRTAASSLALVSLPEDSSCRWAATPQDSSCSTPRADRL
T3 sequence (Q15077 whole entry): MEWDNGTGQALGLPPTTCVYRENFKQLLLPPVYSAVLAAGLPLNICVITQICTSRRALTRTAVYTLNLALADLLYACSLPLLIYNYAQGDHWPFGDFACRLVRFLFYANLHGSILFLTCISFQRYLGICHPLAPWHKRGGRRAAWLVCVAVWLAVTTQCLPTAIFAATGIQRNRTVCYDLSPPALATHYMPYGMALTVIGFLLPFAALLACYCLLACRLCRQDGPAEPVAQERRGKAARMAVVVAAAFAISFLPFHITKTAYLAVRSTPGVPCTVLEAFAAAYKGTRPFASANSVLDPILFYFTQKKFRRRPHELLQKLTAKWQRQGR

## O=c1[nH]c(=S)ccn1[C@@H]1O[C@H](COP(=O)(O)OP(=O)(O)OP(=O)(O)O)[C@@H](O)[C@H]1O
P2Y purinoceptor 4 [1]
  EC50: 0.023 µM
P2Y purinoceptor 4 [2]
  EC50: 0.023 µM
P2Y purinoceptor 2 [3]
  EC50: 0.026 µM

## O=c1ccn([C@@H]2O[C@H](COP(=O)(O)OP(=O)(O)OP(=O)(O)O)[C@@H](O)[C@H]2O)c(=O)[nH]1 [URIDINE TRIPHOSPHATE]
P2Y purinoceptor 4 [2]
  EC50: 0.0884 µM
P2Y purinoceptor 2 [3]
  EC50: 0.0179 µM

## O=c1[nH]c(=S)ccn1[C@@H]1O[C@H](COP(=O)(O)OP(=O)(O)C(Cl)(Cl)P(=O)(O)O)[C@@H](O)[C@H]1O
P2Y purinoceptor 6 [4]
  EC50: 8.1 µM
P2Y purinoceptor 4 [2]
  EC50: 7.87 µM
P2Y purinoceptor 2 [3]
  EC50: 1.81 µM

## O=c1ccn([C@@H]2O[C@H](COP(=O)(O)O)[C@@H](O)[C@H]2O)c(SCCc2ccccc2)n1
P2Y purinoceptor 6 [4]
  EC50: > 100 µM
P2Y purinoceptor 4 [2]
  EC50: > 100 µM
Homo sapiens [5]
  Ratio EC50: > 100
P2Y purinoceptor 2 [3]
  EC50: 1.3 µM
Homo sapiens [6]
  Ratio EC50: 100

## CSc1nc(=O)ccn1[C@@H]1O[C@H](COP(=O)(O)OP(=O)(O)O)[C@@H](O)[C@H]1O
P2Y purinoceptor 2 [7]
  Ratio EC50: 33
P2Y purinoceptor 6 [4]
  EC50: 4.7 µM
P2Y purinoceptor 4 [2]
  EC50: 1.52 µM
P2Y purinoceptor 2 [3]
  EC50: 0.523 µM

## COc1nc(=O)ccn1[C@@H]1O[C@H](COP(=O)(O)O)[C@@H](O)[C@H]1O
P2Y purinoceptor 6 [4]
  EC50: 9.8 µM
P2Y purinoceptor 4 [2]
  EC50: > 100 µM
P2Y purinoceptor 2 [3]
  EC50: 9.9 µM

## O=c1ccn([C@@H]2O[C@H](COP(=O)(O)O)[C@@H](O)[C@H]2O)c(SCc2ccccc2)n1
P2Y purinoceptor 6 [4]
  EC50: > 100 µM
P2Y purinoceptor 4 [2]
  EC50: > 100 µM
P2Y purinoceptor 2 [3]
  EC50: ≥ 100 µM

## Nc1nc(=O)ccn1[C@@H]1O[C@H](COP(=O)(O)O)[C@@H](O)[C@H]1O
Homo sapiens [8]
  Ratio EC50: > 20
Homo sapiens [9]
  Ratio EC50: > 20
P2Y purinoceptor 6 [4]
  EC50: > 100 µM
Homo sapiens [5]
  Ratio EC50: > 100
P2Y purinoceptor 2 [3]
  EC50: > 100 µM
Homo sapiens [6]
  Ratio EC50: > 100

## O=c1ccn([C@@H]2O[C@H](COP(=O)(O)OP(=O)(O)O)[C@@H](O)[C@H]2O)c(SCc2ccccc2)n1
P2Y purinoceptor 6 [4]
  EC50: 6.8 µM
P2Y purinoceptor 4 [2]
  EC50: 5.98 µM
P2Y purinoceptor 2 [3]
  EC50: 6.2 µM

## O=c1[nH]c(=O)n([C@@H]2O[C@H](COP(=O)(O)OP(=O)(O)OP(=O)(O)Nc3ccccc3)[C@@H](O)[C@H]2O)cc1Br
P2Y purinoceptor 6 [4]
  EC50: 6.1 µM
P2Y purinoceptor 4 [2]
  EC50: > 100 µM
P2Y purinoceptor 2 [3]
  EC50: 1.8 µM

## O=C(Cn1c(=O)ccn([C@@H]2O[C@H](COP(=O)(O)OP(=O)(O)C(F)(F)P(=O)(O)O)[C@@H](O)[C@H]2O)c1=O)c1ccccc1
P2Y purinoceptor 6 [4]
  EC50: 1.46 µM
P2Y purinoceptor 4 [2]
  EC50: 3.93 µM
P2Y purinoceptor 2 [3]
  EC50: 1.2 µM

## O=c1ccn([C@@H]2O[C@H](COP(=O)(O)OP(=O)(O)C(Cl)(Cl)P(=O)(O)O)[C@@H](O)[C@H]2O)c(=S)[nH]1
P2Y purinoceptor 6 [4]
  EC50: 7.7 µM
P2Y purinoceptor 4 [2]
  EC50: 3.85 µM
P2Y purinoceptor 2 [3]
  EC50: 0.794 µM

## O=c1[nH]c(=S)ccn1[C@@H]1O[C@H](COP(=O)(O)OP(=O)(O)C(F)(F)P(=O)(O)O)[C@@H](O)[C@H]1O
P2Y purinoceptor 6 [4]
  EC50: 7 µM
P2Y purinoceptor 4 [2]
  EC50: 9.3 µM
Homo sapiens [5]
  Ratio EC50: > 60
P2Y purinoceptor 2 [3]
  EC50: 0.134 µM
Homo sapiens [6]
  Ratio EC50: > 60

## O=C(Cn1c(=O)ccn([C@@H]2O[C@H](COP(=O)(O)OP(=O)(O)C(Cl)(Cl)P(=O)(O)O)[C@@H](O)[C@H]2O)c1=O)c1ccccc1
Homo sapiens [10]
  Ratio EC50: 50
P2Y purinoceptor 6 [4]
  EC50: 0.142 µM
P2Y purinoceptor 4 [2]
  EC50: 7.3 µM
Homo sapiens [11]
  Ratio EC50: 6
P2Y purinoceptor 2 [3]
  EC50: 0.826 µM

## O=c1ccn([C@@H]2O[C@H](COP(=O)(O)OP(=O)(O)O)[C@@H](O)[C@H]2O)c(SCCc2ccccc2)n1
P2Y purinoceptor 6 [4]
  EC50: 2.5 µM
P2Y purinoceptor 4 [2]
  EC50: ≥ 100 µM
P2Y purinoceptor 2 [3]
  EC50: 0.544 µM

## Nc1nc(=O)ccn1[C@@H]1O[C@H](COP(=O)(O)OP(=O)(O)O)[C@@H](O)[C@H]1O
P2Y purinoceptor 6 [4]
  EC50: ≥ 100 µM
P2Y purinoceptor 4 [2]
  EC50: ≥ 100 µM
Homo sapiens [5]
  Ratio EC50: > 100
P2Y purinoceptor 2 [3]
  EC50: 0.604 µM
Homo sapiens [6]
  Ratio EC50: > 100

## COc1nc(=O)ccn1[C@@H]1O[C@H](COP(=O)(O)OP(=O)(O)O)[C@@H](O)[C@H]1O
P2Y purinoceptor 6 [4]
  EC50: 1.37 µM
P2Y purinoceptor 4 [2]
  EC50: 4.49 µM
P2Y purinoceptor 2 [3]
  EC50: 0.907 µM

## CCCSc1nc(=O)ccn1[C@@H]1O[C@H](COP(=O)(O)OP(=O)(O)O)[C@@H](O)[C@H]1O
P2Y purinoceptor 6 [4]
  EC50: ≥ 100 µM
P2Y purinoceptor 4 [2]
  EC50: 4.9 µM
P2Y purinoceptor 2 [3]
  EC50: 1.2 µM

## O=c1[nH]c(=S)ccn1[C@@H]1O[C@H](COP(=O)(O)O)[C@@H](O)[C@H]1O
P2Y purinoceptor 6 [4]
  EC50: > 100 µM
P2Y purinoceptor 4 [2]
  EC50: > 100 µM
P2Y purinoceptor 2 [3]
  EC50: > 100 µM

## CSc1nc(=O)ccn1[C@@H]1O[C@H](COP(=O)(O)O)[C@@H](O)[C@H]1O
P2Y purinoceptor 6 [4]
  EC50: > 100 µM
P2Y purinoceptor 4 [2]
  EC50: > 100 µM
P2Y purinoceptor 2 [3]
  EC50: 2.9 µM

## CNc1nc(=O)ccn1[C@@H]1O[C@H](COP(=O)(O)O)[C@@H](O)[C@H]1O
P2Y purinoceptor 6 [4]
  EC50: > 100 µM
P2Y purinoceptor 4 [2]
  EC50: > 100 µM
P2Y purinoceptor 2 [3]
  EC50: > 100 µM

## O=c1ccn([C@@H]2O[C@H](COP(=O)(O)OP(=O)(O)O)[C@@H](O)[C@H]2O)c(=O)[nH]1 [URIDINE_DIPHOSPHATE]
P2Y purinoceptor 6 [4]
  EC50: 0.048 µM
P2Y purinoceptor 4 [2]
  EC50: 14 µM
P2Y purinoceptor 2 [3]
  EC50: 16.5 µM

## O=c1ccn([C@@H]2O[C@H](COP(=O)(O)OP(=O)(O)C(F)(F)P(=O)(O)O)[C@@H](O)[C@H]2O)c(=O)[nH]1
P2Y purinoceptor 6 [4]
  EC50: 2.63 µM
P2Y purinoceptor 4 [2]
  EC50: > 100 µM
P2Y purinoceptor 2 [3]
  EC50: 4.9 µM
Homo sapiens [6]
  Ratio EC50: 2

## O=c1ccn([C@@H]2O[C@H](COP(=O)(O)OP(=O)(O)OP(=O)(O)OP(=O)(O)OC[C@H]3O[C@@H](n4ccc(=O)[nH]c4=O)[C@H](O)[C@@H]3O)[C@@H](O)[C@H]2O)c(=O)[nH]1 [DIQUAFOSOL TETRASODIUM]
P2Y purinoceptor 6 [12]
  EC50: 2 µM
P2Y purinoceptor 4 [1]
  EC50: 0.4 µM

## Nc1ccn([C@H]2C[C@H](O)[C@@H](COP(=O)(O)OP(=O)(O)OP(=O)(O)OP(=O)(O)OC[C@H]3O[C@@H](n4ccc(=O)[nH]c4=O)[C@H](O)[C@@H]3O)O2)c(=O)n1 [DENUFOSOL TETRASODIUM]
P2Y purinoceptor 6 [12]
  EC50: > 1 µM
P2Y purinoceptor 2 [13]
  EC50: 0.2 µM
P2Y purinoceptor 4 [1]
  EC50: 0.8 µM

## CNc1nc(=O)ccn1[C@@H]1O[C@H](COP(=O)(O)OP(=O)(O)O)[C@@H](O)[C@H]1O
P2Y purinoceptor 6 [4]
  EC50: > 100 µM
P2Y purinoceptor 4 [2]
  EC50: ≥ 100 µM
P2Y purinoceptor 2 [3]
  EC50: 7.6 µM

## CCSc1nc(=O)ccn1[C@@H]1O[C@H](COP(=O)(O)O)[C@@H](O)[C@H]1O
P2Y purinoceptor 6 [4]
  EC50: > 100 µM
P2Y purinoceptor 4 [2]
  EC50: 4.33 µM
P2Y purinoceptor 2 [3]
  EC50: 1.5 µM

## O=c1ccn([C@@H]2O[C@H](COP(=O)(O)OP(=O)(O)C(Cl)(Cl)P(=O)(O)O)[C@@H](O)[C@H]2O)c(=O)[nH]1
P2Y purinoceptor 6 [4]
  EC50: 6.2 µM
P2Y purinoceptor 4 [2]
  EC50: ≥ 100 µM
P2Y purinoceptor 2 [3]
  EC50: 0.612 µM

## CCCSc1nc(=O)ccn1[C@@H]1O[C@H](COP(=O)(O)O)[C@@H](O)[C@H]1O
P2Y purinoceptor 6 [4]
  EC50: 6.2 µM
P2Y purinoceptor 4 [2]
  EC50: > 100 µM
P2Y purinoceptor 2 [3]
  EC50: 4.8 µM
